For one assay, the target named is rNaV1.2 (Rattus norvegicus, UniProt P04775). Put plainly: Two-electrode voltage-clamp on Xenopus laevis oocytes expressing NaV1.2. The conditions noted are these: for inhibition at 100 µM: read-out: Maximum % inhibition NaV1.2, peptide at 100 μM. A general note: Two-electrode voltage clamp holds a large cell at a set potential and records current.
For a further assay, the target named is rNaV1.4 (Rattus norvegicus, UniProt P15390). Put plainly: Two-electrode voltage-clamp on Xenopus laevis oocytes expressing NaV1.4. The conditions noted are these: for inhibition at 100 µM: read-out: Maximum % inhibition NaV1.4, peptide at 100 μM; for Maximum % inhibition NaV1.4: peptide at 100 μM, 100 µM.
Another assay addresses hNaV1.5 (Homo sapiens, UniProt Q14524). The experiment in a line: Two-electrode voltage-clamp on Xenopus laevis oocytes expressing NaV1.5. Conditions: for inhibition at 100 µM: read-out: Maximum % inhibition NaV1.5.
For the next assay, the target named is mNaV1.6 (Mus musculus, UniProt Q9WTU3). Put plainly: Two-electrode voltage-clamp on Xenopus laevis oocytes expressing NaV1.6. The conditions noted are these: for inhibition at 100 µM: read-out: Maximum % inhibition NaV1.6, peptide at 100 μM.
The target in the next assay is rNaV1.8 (Rattus norvegicus, UniProt Q62968). The experiment in a line: Two-electrode voltage-clamp on Xenopus laevis oocytes expressing NaV1.8. Conditions: for inhibition at 100 µM: read-out: Maximum % inhibition NaV1.8.

Where a SMILES comes first, the peptide text is derived from it. Bridges are numbered along the chain shown (N, C = ends). Bounds are passed on as bounds.

Sequence of rNaV1.2 (P04775 whole entry): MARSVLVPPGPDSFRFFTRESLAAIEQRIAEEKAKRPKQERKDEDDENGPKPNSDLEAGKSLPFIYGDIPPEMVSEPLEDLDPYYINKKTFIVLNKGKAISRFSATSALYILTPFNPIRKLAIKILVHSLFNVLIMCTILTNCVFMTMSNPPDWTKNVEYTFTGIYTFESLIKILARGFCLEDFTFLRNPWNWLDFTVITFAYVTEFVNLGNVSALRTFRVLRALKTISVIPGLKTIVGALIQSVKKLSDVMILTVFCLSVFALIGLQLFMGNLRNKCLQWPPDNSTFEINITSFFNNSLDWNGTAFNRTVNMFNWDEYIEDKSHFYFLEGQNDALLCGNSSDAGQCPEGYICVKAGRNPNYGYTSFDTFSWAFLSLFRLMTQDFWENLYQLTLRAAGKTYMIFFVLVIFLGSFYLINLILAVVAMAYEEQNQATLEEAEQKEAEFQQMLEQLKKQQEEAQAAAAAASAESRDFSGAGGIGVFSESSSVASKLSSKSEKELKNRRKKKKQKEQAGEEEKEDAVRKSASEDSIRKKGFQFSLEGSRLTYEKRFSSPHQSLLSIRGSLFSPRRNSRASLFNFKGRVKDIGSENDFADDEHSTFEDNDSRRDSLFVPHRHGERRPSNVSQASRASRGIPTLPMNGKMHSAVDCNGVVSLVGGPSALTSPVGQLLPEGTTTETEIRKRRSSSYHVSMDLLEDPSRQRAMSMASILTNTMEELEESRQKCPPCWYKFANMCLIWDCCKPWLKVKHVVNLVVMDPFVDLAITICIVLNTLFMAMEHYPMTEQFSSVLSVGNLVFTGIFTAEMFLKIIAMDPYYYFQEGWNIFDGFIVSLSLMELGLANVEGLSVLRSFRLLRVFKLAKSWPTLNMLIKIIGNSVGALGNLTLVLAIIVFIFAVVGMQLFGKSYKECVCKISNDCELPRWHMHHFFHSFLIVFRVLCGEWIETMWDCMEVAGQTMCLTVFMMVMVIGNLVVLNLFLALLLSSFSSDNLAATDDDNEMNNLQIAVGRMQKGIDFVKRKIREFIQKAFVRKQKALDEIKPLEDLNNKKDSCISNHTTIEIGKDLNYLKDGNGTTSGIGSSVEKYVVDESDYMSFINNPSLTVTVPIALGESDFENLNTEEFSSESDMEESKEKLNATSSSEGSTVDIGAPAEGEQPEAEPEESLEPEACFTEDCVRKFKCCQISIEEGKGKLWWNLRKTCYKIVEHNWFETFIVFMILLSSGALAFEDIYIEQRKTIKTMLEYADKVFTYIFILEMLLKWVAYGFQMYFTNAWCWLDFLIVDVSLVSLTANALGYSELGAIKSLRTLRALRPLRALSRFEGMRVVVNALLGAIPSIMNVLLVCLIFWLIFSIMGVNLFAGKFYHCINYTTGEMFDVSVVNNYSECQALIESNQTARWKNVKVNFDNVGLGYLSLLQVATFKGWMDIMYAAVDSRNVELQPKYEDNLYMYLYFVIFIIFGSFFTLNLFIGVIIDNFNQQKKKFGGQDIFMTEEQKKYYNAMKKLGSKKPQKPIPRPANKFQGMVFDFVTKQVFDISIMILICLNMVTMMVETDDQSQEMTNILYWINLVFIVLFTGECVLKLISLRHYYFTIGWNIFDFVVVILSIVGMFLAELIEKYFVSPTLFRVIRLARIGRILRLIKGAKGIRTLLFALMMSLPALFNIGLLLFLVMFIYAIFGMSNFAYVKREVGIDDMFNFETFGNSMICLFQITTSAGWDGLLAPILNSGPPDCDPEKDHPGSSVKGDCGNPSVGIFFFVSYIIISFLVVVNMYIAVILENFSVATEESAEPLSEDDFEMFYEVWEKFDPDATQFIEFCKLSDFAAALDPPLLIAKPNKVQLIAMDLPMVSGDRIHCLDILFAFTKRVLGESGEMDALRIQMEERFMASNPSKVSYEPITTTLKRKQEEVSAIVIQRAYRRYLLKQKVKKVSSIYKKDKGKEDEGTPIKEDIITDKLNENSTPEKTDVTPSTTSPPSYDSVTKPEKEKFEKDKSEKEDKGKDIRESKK
Sequence of rNaV1.2 (Q00954 19-218, further chain): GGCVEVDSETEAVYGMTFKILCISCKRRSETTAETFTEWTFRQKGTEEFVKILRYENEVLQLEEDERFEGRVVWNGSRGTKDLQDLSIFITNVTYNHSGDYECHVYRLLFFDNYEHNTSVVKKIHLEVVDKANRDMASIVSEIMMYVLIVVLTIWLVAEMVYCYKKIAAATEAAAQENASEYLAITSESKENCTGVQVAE
Sequence of hNaV1.5 (Q14524 whole entry): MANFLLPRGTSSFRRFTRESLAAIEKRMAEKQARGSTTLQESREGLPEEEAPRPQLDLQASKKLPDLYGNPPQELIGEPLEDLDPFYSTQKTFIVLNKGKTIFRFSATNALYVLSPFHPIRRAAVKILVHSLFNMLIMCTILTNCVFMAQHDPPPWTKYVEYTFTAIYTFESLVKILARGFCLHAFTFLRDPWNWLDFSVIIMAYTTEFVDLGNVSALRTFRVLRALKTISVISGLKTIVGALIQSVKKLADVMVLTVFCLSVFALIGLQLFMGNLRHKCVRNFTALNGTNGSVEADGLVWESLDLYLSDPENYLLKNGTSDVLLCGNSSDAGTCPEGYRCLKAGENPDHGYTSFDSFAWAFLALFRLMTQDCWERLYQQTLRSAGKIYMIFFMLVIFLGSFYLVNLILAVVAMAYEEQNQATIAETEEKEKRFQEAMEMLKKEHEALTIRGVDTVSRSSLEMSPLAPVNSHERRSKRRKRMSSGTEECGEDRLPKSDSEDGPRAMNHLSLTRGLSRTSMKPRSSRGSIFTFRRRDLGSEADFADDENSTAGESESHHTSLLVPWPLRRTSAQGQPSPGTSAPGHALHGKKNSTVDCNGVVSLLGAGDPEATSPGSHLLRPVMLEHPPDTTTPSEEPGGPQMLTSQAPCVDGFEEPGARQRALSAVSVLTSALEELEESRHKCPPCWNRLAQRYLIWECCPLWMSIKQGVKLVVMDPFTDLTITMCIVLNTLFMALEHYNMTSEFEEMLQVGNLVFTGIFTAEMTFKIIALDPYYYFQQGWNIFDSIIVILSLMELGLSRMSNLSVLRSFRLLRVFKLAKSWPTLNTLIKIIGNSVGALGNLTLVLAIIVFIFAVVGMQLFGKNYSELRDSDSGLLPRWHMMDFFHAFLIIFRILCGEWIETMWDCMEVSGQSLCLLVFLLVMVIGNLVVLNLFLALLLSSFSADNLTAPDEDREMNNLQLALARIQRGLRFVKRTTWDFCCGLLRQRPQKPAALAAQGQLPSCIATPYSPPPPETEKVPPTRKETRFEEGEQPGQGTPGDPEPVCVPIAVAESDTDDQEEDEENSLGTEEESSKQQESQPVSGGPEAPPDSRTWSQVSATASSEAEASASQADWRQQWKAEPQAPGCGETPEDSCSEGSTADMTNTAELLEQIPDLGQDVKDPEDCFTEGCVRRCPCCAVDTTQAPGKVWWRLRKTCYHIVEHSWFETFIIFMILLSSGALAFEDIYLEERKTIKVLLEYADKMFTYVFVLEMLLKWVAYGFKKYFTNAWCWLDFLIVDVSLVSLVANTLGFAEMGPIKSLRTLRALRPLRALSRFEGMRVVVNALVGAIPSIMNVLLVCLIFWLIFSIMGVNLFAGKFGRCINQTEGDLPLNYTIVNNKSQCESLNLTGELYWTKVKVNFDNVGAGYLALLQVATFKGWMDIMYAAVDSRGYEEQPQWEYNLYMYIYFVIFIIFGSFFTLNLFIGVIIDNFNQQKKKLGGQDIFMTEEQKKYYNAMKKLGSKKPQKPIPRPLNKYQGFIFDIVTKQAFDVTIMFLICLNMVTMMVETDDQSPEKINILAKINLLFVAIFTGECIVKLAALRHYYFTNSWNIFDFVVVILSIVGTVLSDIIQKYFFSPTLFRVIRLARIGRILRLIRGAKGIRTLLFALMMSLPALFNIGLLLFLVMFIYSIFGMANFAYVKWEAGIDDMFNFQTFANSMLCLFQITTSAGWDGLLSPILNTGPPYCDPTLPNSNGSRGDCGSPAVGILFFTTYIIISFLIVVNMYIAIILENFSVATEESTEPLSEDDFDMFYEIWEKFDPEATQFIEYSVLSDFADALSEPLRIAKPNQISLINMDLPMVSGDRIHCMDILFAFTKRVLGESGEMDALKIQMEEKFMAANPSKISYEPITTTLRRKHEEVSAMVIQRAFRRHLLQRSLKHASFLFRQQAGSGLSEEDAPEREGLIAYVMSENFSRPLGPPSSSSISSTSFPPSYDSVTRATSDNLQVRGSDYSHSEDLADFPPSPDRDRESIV

For `C[C@@H]1NC(=O)[C@H](CC(N)=O)NC(=O)[C@H](Cc2c[nH]c3ccccc23)NC(=O)[C@H](CCCNC(=N)N)NC(=O)[C@H](C)NC(=O)[C@H](Cc2c[nH]c3ccccc23)NC(=O)[C@H](CCCNC(=N)N)NC(=O)[C@H](CCCNC(=N)N)NC(=O)[C@@H](N)CSSC[C@@H](C(N)=O)NC1=O` [PnCS1[R9A], CRRWARWNAC ^*] (H-CRRWARWNAC-NH2; disulfide 1-10), the IC50 (usually the concentration at which inhibition is half-maximal) was 6700 ± 1200 nM at rNaV1.2; 1100 ± 300 nM against rNaV1.4; 9200 ± 4600 nM on hNaV1.5; 900 ± 400 nM against mNaV1.6; over 100000 nM at rNaV1.8. The inhibition – broadly, the drop in the measured response relative to a control, in per cent – at 100 µM was 80% at rNaV1.2; 86% at rNaV1.4; 72% at hNaV1.5; 79% at mNaV1.6; 0% at rNaV1.8.
On to `N=C(N)NCCC[C@@H]1NC(=O)[C@H](CC(N)=O)NC(=O)[C@H](Cc2c[nH]c3ccccc23)NC(=O)[C@H](CCCNC(=N)N)NC(=O)[C@H](CCCCN)NC(=O)[C@H](Cc2c[nH]c3ccccc23)NC(=O)[C@H](CCCNC(=N)N)NC(=O)[C@H](CCCNC(=N)N)NC(=O)[C@@H](N)CSSC[C@@H](C(N)=O)NC1=O` [PnCS1[A5K], CRRWKRWNRC ^*] (H-CRRWKRWNRC-NH2; disulfide 1-10), for which the IC50 against rNaV1.2 was 1200 ± 400 nM; against rNaV1.4, 1900 ± 800 nM; at hNaV1.5, 2100 ± 200 nM; at mNaV1.6, 700 ± 300 nM; against rNaV1.8 it was over 100000 nM. Further, the inhibition at 100 µM on rNaV1.2 was 84%; at rNaV1.4 it was 91%; on hNaV1.5, 92%; at mNaV1.6, 93%; on rNaV1.8, 0%.
As to `C[C@@H]1NC(=O)[C@H](Cc2c[nH]c3ccccc23)NC(=O)[C@H](CCCNC(=N)N)NC(=O)[C@H](CCCNC(=N)N)NC(=O)[C@@H](N)CSSC[C@@H](C(N)=O)NC(=O)[C@H](CCC(=O)O)NC(=O)[C@H](CC(N)=O)NC(=O)[C@H](Cc2c[nH]c3ccccc23)NC(=O)[C@H](CCCNC(=N)N)NC1=O` [PnCS1[R9E], CRRWARWNEC ^*] (H-CRRWARWNEC-NH2; disulfide 1-10), the IC50 against rNaV1.2, on rNaV1.4, on hNaV1.5, against mNaV1.6 and at rNaV1.8 was over 100000 nM each time. Besides, the inhibition at 100 µM at rNaV1.2 was found to be 49%; at rNaV1.4 it was 0%; on hNaV1.5, 40%; at mNaV1.6, 11%; at rNaV1.8 it was 0%.
On to `C[C@@H]1NC(=O)[C@H](CCC(=O)O)NC(=O)[C@H](CCCNC(=N)N)NC(=O)[C@H](CCCNC(=N)N)NC(=O)[C@@H](N)CSSC[C@@H](C(N)=O)NC(=O)[C@H](CCCNC(=N)N)NC(=O)[C@H](CC(N)=O)NC(=O)[C@H](Cc2c[nH]c3ccccc23)NC(=O)[C@H](CCCNC(=N)N)NC1=O` [PnCS1[W4E], CRREARWNRC ^*] (H-CRREARWNRC-NH2; disulfide 1-10), for which the IC50 is 13200 ± 5200 nM on rNaV1.2; 12800 ± 4100 nM against rNaV1.4; over 100000 nM against hNaV1.5; 14800 ± 3900 nM against mNaV1.6; over 100000 nM at rNaV1.8. For the same molecule, the inhibition at 100 µM is 72% at rNaV1.2; 59% on rNaV1.4; 34% at hNaV1.5; 67% at mNaV1.6; 0% at rNaV1.8.
As for `C[C@@H]1NC(=O)[C@H](C)NC(=O)[C@H](Cc2c[nH]c3ccccc23)NC(=O)[C@H](CCCNC(=N)N)NC(=O)[C@H](CCCNC(=N)N)NC(=O)[C@@H](N)CSSC[C@@H](C(N)=O)NC(=O)[C@H](CCCNC(=N)N)NC(=O)[C@H](CC(N)=O)NC(=O)[C@H](Cc2c[nH]c3ccccc23)NC1=O` [PnCS1[R6A], CRRWAAWNRC ^*] (H-CRRWAAWNRC-NH2; disulfide 1-10), the IC50 against rNaV1.2 is 9200 ± 1100 nM; at rNaV1.4, 500 ± 200 nM; on hNaV1.5, 7600 ± 2200 nM; against mNaV1.6, 900 ± 200 nM; on rNaV1.8 it was over 100000 nM. Besides, the inhibition at 100 µM at rNaV1.2 is 73%; on rNaV1.4, over 95%; at hNaV1.5 it was 78%; at mNaV1.6, over 95%; on rNaV1.8, 0%. The “Maximum % inhibition NaV1.4” value at rNaV1.4 stood at 90%. For the same molecule, the “Maximum % inhibition NaV1.6” value on mNaV1.6 (peptide at 100 μM, 100 µM) was 96%.
`C[C@@H]1NC(=O)[C@H](Cc2c[nH]c3ccccc23)NC(=O)[C@H](C)NC(=O)[C@H](CCCNC(=N)N)NC(=O)[C@@H](N)CSSC[C@@H](C(N)=O)NC(=O)[C@H](CCCNC(=N)N)NC(=O)[C@H](CC(N)=O)NC(=O)[C@H](Cc2c[nH]c3ccccc23)NC(=O)[C@H](CCCNC(=N)N)NC1=O` [PnCS1[R3A], CRAWARWNRC ^*] (H-CRAWARWNRC-NH2; disulfide 1-10): the IC50 against rNaV1.2 was 1800 ± 300 nM; at rNaV1.4 it was 1600 ± 500 nM; against hNaV1.5, over 100000 nM; against mNaV1.6, 1900 ± 400 nM; on rNaV1.8 it was over 100000 nM. Moreover, the inhibition at 100 µM on rNaV1.2 was 86%; on rNaV1.4, 89%; at hNaV1.5 it was 51%; on mNaV1.6, 87%; on rNaV1.8, 0%.
For the molecule `N=C(N)NCCC[C@@H]1NC(=O)[C@H](CC(N)=O)NC(=O)[C@H](Cc2c[nH]c3ccccc23)NC(=O)[C@H](CCCNC(=N)N)NC(=O)[C@H](CCC(=O)O)NC(=O)[C@H](Cc2c[nH]c3ccccc23)NC(=O)[C@H](CCCNC(=N)N)NC(=O)[C@H](CCCNC(=N)N)NC(=O)[C@@H](N)CSSC[C@@H](C(N)=O)NC1=O` [PnCS1[A5E], CRRWERWNRC ^*] (H-CRRWERWNRC-NH2; disulfide 1-10), the IC50 at rNaV1.2 is 1400 ± 200 nM; at rNaV1.4 it was over 100000 nM; against hNaV1.5, 8800 ± 3700 nM; on mNaV1.6 it was 1800 ± 500 nM; against rNaV1.8, over 100000 nM. In addition, the inhibition at 100 µM is 81% at rNaV1.2; 35% at rNaV1.4; 73% at hNaV1.5; 82% on mNaV1.6; 0% at rNaV1.8.
Turning to `C[C@@H]1NC(=O)[C@H](Cc2c[nH]c3ccccc23)NC(=O)[C@H](CCCNC(=N)N)NC(=O)[C@H](C)NC(=O)[C@H](Cc2c[nH]c3ccccc23)NC(=O)[C@H](CCCNC(=N)N)NC(=O)[C@H](CCCNC(=N)N)NC(=O)[C@@H](N)CSSC[C@@H](C(N)=O)NC(=O)[C@H](CCCNC(=N)N)NC1=O` [PnCS1[N8A], CRRWARWARC ^*] (H-CRRWARWARC-NH2; disulfide 1-10), the IC50 is 900 ± 300 nM at rNaV1.2; 900 ± 400 nM at rNaV1.4; 2200 ± 700 nM against hNaV1.5; 800 ± 300 nM against mNaV1.6; over 100000 nM at rNaV1.8. Besides, the “Maximum % inhibition NaV1.2” value at rNaV1.2 (peptide at 100 μM, 100 µM) is recorded as 96%. For the same molecule, the inhibition at 100 µM is over 95% at rNaV1.2; 94% at rNaV1.4; 92% on hNaV1.5; 89% on mNaV1.6; 0% at rNaV1.8.
In the case of `C[C@@H]1NC(=O)[C@H](C)NC(=O)[C@H](CCCNC(=N)N)NC(=O)[C@H](CCCNC(=N)N)NC(=O)[C@@H](N)CSSC[C@@H](C(N)=O)NC(=O)[C@H](CCCNC(=N)N)NC(=O)[C@H](CC(N)=O)NC(=O)[C@H](Cc2c[nH]c3ccccc23)NC(=O)[C@H](CCCNC(=N)N)NC1=O` [PnCS1[W4A], CRRAARWNRC ^*] (H-CRRAARWNRC-NH2; disulfide 1-10), the IC50 is 800 ± 300 nM against rNaV1.2; 700 ± 300 nM against rNaV1.4; 3400 ± 200 nM at hNaV1.5; 1200 ± 300 nM at mNaV1.6; over 100000 nM on rNaV1.8. Besides, the inhibition at 100 µM on rNaV1.2 is 89%; at rNaV1.4 it was 95%; on hNaV1.5, 82%; on mNaV1.6 it was 76%; at rNaV1.8 it was 0%.
As to `C[C@@H]1NC(=O)[C@H](CCCNC(=N)N)NC(=O)[C@H](C)NC(=O)[C@H](Cc2c[nH]c3ccccc23)NC(=O)[C@H](CCCNC(=N)N)NC(=O)[C@H](CCCNC(=N)N)NC(=O)[C@@H](N)CSSC[C@@H](C(N)=O)NC(=O)[C@H](CCCNC(=N)N)NC(=O)[C@H](CC(N)=O)NC1=O` [PnCS1[W7A], CRRWARANRC ^*] (H-CRRWARANRC-NH2; disulfide 1-10), the IC50 against rNaV1.2 was 800 ± 300 nM; on rNaV1.4 it was 1100 ± 400 nM; against hNaV1.5 it was 6800 ± 1300 nM; against mNaV1.6 it was 11400 ± 3600 nM; on rNaV1.8 it was over 100000 nM. Further, the inhibition at 100 µM is 92% on rNaV1.2; over 95% on rNaV1.4; 78% on hNaV1.5; 57% on mNaV1.6; 0% at rNaV1.8. For the same molecule, the “Maximum % inhibition NaV1.4” value on rNaV1.4 was determined as 96%.
For the molecule `CC(=O)N[C@H]1CSSC[C@@H](C(N)=O)NC(=O)[C@H](CCCNC(=N)N)NC(=O)[C@H](CC(N)=O)NC(=O)[C@H](Cc2c[nH]c3ccccc23)NC(=O)[C@H](CCCNC(=N)N)NC(=O)[C@H](C)NC(=O)[C@H](Cc2c[nH]c3ccccc23)NC(=O)[C@H](CCCNC(=N)N)NC(=O)[C@H](CCCNC(=N)N)NC1=O` [PnCS1AcAm, Ac-CRRWARWNRC ^*] (Ac-CRRWARWNRC-NH2; disulfide 1-10), the IC50 at rNaV1.2, against rNaV1.4, on hNaV1.5, against mNaV1.6 and against rNaV1.8 was over 100000 nM in each case. Further, the inhibition at 100 µM at rNaV1.2, on rNaV1.4, on hNaV1.5, at mNaV1.6 and at rNaV1.8 was 0% in each case.

Values taken from publication PMC9116130 (Biochemical pharmacology, 2020).
